Source: a compilation of properties of binary mixtures (doi:10.1021/acs.jpcc.8b05193)

Assay: xn = mol fraction of the nth substance listed
Conditions: 100 kPa

O=S(=O)([N-]S(=O)(=O)C(F)(F)F)C(F)(F)F.[Li+] + O
Conditions | electrical conductivity [S/m]
260.73 K, x2 = 0.7857 | 0.407
261.98 K, x2 = 0.8065 | 0.617
262.18 K, x2 = 0.8855 | 1.33
262.4 K, x2 = 0.9148 | 1.46
262.6 K, x2 = 0.8271 | 0.808
262.82 K, x2 = 0.8495 | 1.04
265.92 K, x2 = 0.7857 | 0.55
266.56 K, x2 = 0.8065 | 0.767
266.96 K, x2 = 0.8495 | 1.25
266.96 K, x2 = 0.9761 | 1.36
267.38 K, x2 = 0.8855 | 1.66
267.6 K, x2 = 0.9148 | 1.86
270.7 K, x2 = 0.7857 | 0.684
271.54 K, x2 = 0.8065 | 0.966
271.96 K, x2 = 0.9761 | 1.73
272.15 K, x2 = 0.8271 | 1.21
272.6 K, x2 = 0.9148 | 2.27
273.4 K, x2 = 0.7538 | 0.461
273.4 K, x2 = 0.8495 | 1.62
275.7 K, x2 = 0.7857 | 0.843
277.15 K, x1 = 0.0039 | 0.623
277.35 K, x2 = 0.8065 | 1.16
277.35 K, x2 = 0.8855 | 2.54
277.35 K, x2 = 0.9761 | 2.06
277.55 K, x2 = 0.8271 | 1.51
277.97 K, x2 = 0.7538 | 0.579
277.97 K, x2 = 0.9148 | 2.88
278.19 K, x2 = 0.8495 | 1.94
280.67 K, x2 = 0.7857 | 1.06
281.51 K, x2 = 0.8271 | 1.8
281.93 K, x2 = 0.8855 | 2.94
282.13 K, x2 = 0.9761 | 2.49
282.32 K, x1 = 0.0039 | 0.736
282.32 K, x2 = 0.8065 | 1.43
282.55 K, x2 = 0.9148 | 3.3
282.74 K, x2 = 0.8495 | 2.22
285.45 K, x2 = 0.7857 | 1.23
286.71 K, x2 = 0.9148 | 3.94
286.9 K, x2 = 0.8271 | 2.11
287.1 K, x2 = 0.8065 | 1.66
287.32 K, x2 = 0.8855 | 3.47
287.52 K, x2 = 0.9761 | 2.94
287.94 K, x2 = 0.8495 | 2.65
291.06 K, x2 = 0.7857 | 1.46
291.46 K, x2 = 0.8271 | 2.41
291.88 K, x2 = 0.8855 | 3.98
292.1 K, x2 = 0.9761 | 3.33
292.52 K, x2 = 0.7538 | 1.02
292.71 K, x2 = 0.9148 | 4.51
293.13 K, x2 = 0.8495 | 3.17
295.84 K, x2 = 0.7857 | 1.71
296.88 K, x2 = 0.6988 | 0.538
296.88 K, x2 = 0.9761 | 3.81
297.29 K, x2 = 0.8065 | 2.22
297.29 K, x2 = 0.8855 | 4.65
297.49 K, x2 = 0.7538 | 1.19
297.49 K, x2 = 0.8495 | 3.51
297.49 K, x2 = 0.9148 | 5.33
298.11 K, x1 = 0.0039 | 1.07
300.4 K, x2 = 0.7857 | 1.96
302.47 K, x1 = 0.0039 | 1.21
302.47 K, x2 = 0.6988 | 0.636
302.47 K, x2 = 0.8855 | 5.16
302.69 K, x2 = 0.9761 | 4.37
303.11 K, x2 = 0.8065 | 2.62
305.59 K, x2 = 0.7857 | 2.24
307.05 K, x2 = 0.8855 | 5.67
307.05 K, x2 = 0.9148 | 6.42
307.24 K, x2 = 0.6988 | 0.767
307.46 K, x1 = 0.0039 | 1.35
307.46 K, x2 = 0.8271 | 3.62
307.46 K, x2 = 0.8495 | 4.46
310.79 K, x2 = 0.7857 | 2.57
312.02 K, x2 = 0.9761 | 5.38
312.24 K, x2 = 0.7538 | 1.8
312.24 K, x2 = 0.8271 | 4.02
312.24 K, x2 = 0.8495 | 4.95
312.66 K, x1 = 0.0039 | 1.51
312.66 K, x2 = 0.8855 | 6.42
312.66 K, x2 = 0.9148 | 7.28
313.05 K, x2 = 0.6601 | 0.528
316.6 K, x1 = 0.0039 | 1.62
316.8 K, x2 = 0.8855 | 7.06
317.02 K, x2 = 0.8065 | 3.59
317.21 K, x2 = 0.9761 | 5.97
317.41 K, x2 = 0.9148 | 8.07
317.63 K, x2 = 0.6601 | 0.604
317.83 K, x2 = 0.7538 | 2.06
321.79 K, x2 = 0.8065 | 3.94
321.79 K, x2 = 0.8855 | 7.59
321.99 K, x1 = 0.0039 | 1.78
322.19 K, x2 = 0.8271 | 4.85
322.41 K, x2 = 0.9148 | 8.69
322.61 K, x2 = 0.8495 | 6.03
322.83 K, x2 = 0.6601 | 0.692
323.03 K, x2 = 0.6988 | 1.18
326.35 K, x2 = 0.7857 | 3.51
326.77 K, x1 = 0.0039 | 1.92
326.97 K, x2 = 0.8855 | 8.33
327.19 K, x2 = 0.7538 | 2.52
327.19 K, x2 = 0.9148 | 9.45
327.38 K, x2 = 0.9761 | 7.13
327.8 K, x2 = 0.8495 | 6.49
328.02 K, x2 = 0.8065 | 4.56
328.64 K, x2 = 0.6601 | 0.833
332.16 K, x1 = 0.0039 | 2.08
332.58 K, x2 = 0.6988 | 1.52
332.58 K, x2 = 0.9148 | 10
332.78 K, x2 = 0.9761 | 7.67
333.42 K, x2 = 0.6601 | 0.945
336.94 K, x2 = 0.8271 | 6.35
337.16 K, x1 = 0.0039 | 2.2
337.36 K, x2 = 0.8065 | 5.27
337.55 K, x2 = 0.8495 | 7.59
337.55 K, x2 = 0.9148 | 10.7
337.78 K, x2 = 0.9761 | 8.25
337.97 K, x2 = 0.7538 | 3.13
338.19 K, x2 = 0.6601 | 1.05
338.19 K, x2 = 0.6988 | 1.73
342.33 K, x2 = 0.8495 | 8.16
342.33 K, x2 = 0.9148 | 11.6
342.55 K, x2 = 0.6988 | 1.88
342.55 K, x2 = 0.8855 | 10.4
342.75 K, x2 = 0.9761 | 8.87
345.65 K, x2 = 0.7857 | 4.95
347.11 K, x2 = 0.8855 | 11
347.33 K, x2 = 0.6601 | 1.35
347.33 K, x2 = 0.8065 | 6.03
347.33 K, x2 = 0.8271 | 7.51
347.75 K, x2 = 0.9148 | 12.5
347.94 K, x2 = 0.7538 | 3.73
350.43 K, x2 = 0.7857 | 5.27
352.11 K, x2 = 0.8495 | 9.06
352.3 K, x1 = 0.0039 | 2.65
352.52 K, x2 = 0.9148 | 13
352.72 K, x2 = 0.8271 | 7.91
352.72 K, x2 = 0.9761 | 9.74
352.92 K, x2 = 0.6601 | 1.48
353.14 K, x2 = 0.6988 | 2.34
353.34 K, x2 = 0.7538 | 4.02
356.66 K, x2 = 0.8065 | 6.91
356.88 K, x2 = 0.6988 | 2.49
357.08 K, x2 = 0.9761 | 10.3
357.3 K, x2 = 0.8271 | 8.33
357.3 K, x2 = 0.8495 | 9.74
357.5 K, x1 = 0.0039 | 2.85
357.7 K, x2 = 0.6601 | 1.64
357.92 K, x2 = 0.7538 | 4.32
359.79 K, x2 = 0.7857 | 6.03
360.82 K, x2 = 0.8065 | 7.28
360.82 K, x2 = 0.9761 | 10.7
361.66 K, x2 = 0.8495 | 10.3
361.66 K, x2 = 0.8855 | 13.2
361.86 K, x1 = 0.0039 | 3.04
362.05 K, x2 = 0.6601 | 1.82
362.05 K, x2 = 0.8271 | 8.96
362.47 K, x2 = 0.6988 | 2.76
363.11 K, x2 = 0.9148 | 14.5
363.31 K, x2 = 0.7538 | 4.7
